Values of other authors as cited in patent publication US20260226377A1, “BIODEGRADABLE MICROCAPSULES CONTAINING LOW LOG P FRA-GRANCE” (priority 2023, published 2026).

Details: octanol/water; source of values not stated (b29 refers to reported values, Pomona92 database)

For `O=Cc1ccccc1` [benzaldehyde], the logP value is listed as 1.70.
